Like-named read-outs stand apart in the source and are kept apart here.
Columns and labels:
IL-6 = assay: LPS-stimulated whole bovine blood assay, MSD cytokine detection; assay type: cell-based; settings: LPS-stimulated bovine whole blood, read-out: IL-6 (IC50 μM)
From the text: (§1) In order to correlate RNA sequencing data to cytokine changes the whole blood assay was utilized. […] The enhancement result represents an overall stimulation of cytokine levels due to cellular stress or potential toxicity with increasing concentrations of the compound, representing a typical bell shape response curve for immunomodulatory activity.

TNF-α = assay: as above; assay type: cell-based; settings: LPS-stimulated bovine whole blood, read-out: TNF-α (IC50 μM)
Experimental: (§2) Therefore, a fresh whole bovine blood assay was developed with LPS as a stimulant (TLR-4 agonist) and with IL-1β and TNF-α as the read-out. Compounds of the invention were evaluated against a positive control for their ability to inhibit LPS-induced IL-1β and TNF-α as an overall evaluation of relative potency and modulation of target pathways (Table 6).
In the bovine whole blood in vitro screening assay the inhibition of TNFα as induced by stimulation by lipopolysaccharide (LPS) and as measured by half the maximal inhibitory concentration (IC50) is recognized as the primary biomarker of immunomodulation potency upon pretreatment with the compounds of the invention. IL-1β is a mediator of the inflammation response and is involved in a number of cellular activities including proliferation, differentiation and apoptosis. IL-1β is also released upon cellular stress or cytotoxicity or upon TLR stimulation. In the bovine whole blood assay the stimulation of IL-1β release upon increasing concentration of test compound is seen as a potential cellular toxicity signal as induced by the test compound. In order to estimate a therapeutic index from the in vitro assay a differential between the TNFα IC50 (immunomodulation potency) versus the perceived cellular toxicity concentration (IL-1β release or overstimulation) was utilized.

IL-1β = assay: as above; assay type: cell-based; settings: overstimulation of IL-1β, LPS-stimulated bovine whole blood
Experimental: as §2, with “The effect of multiple cytokines was not easily quantified using single cell types. Therefore,” for “Therefore,”
as §1
In the bovine whole blood in vitro screening assay the inhibition of TNFα as induced by stimulation by lipopolysaccharide (LPS) and as measured by half the maximal inhibitory concentration (IC50) is recognized as the primary biomarker of immunomodulation potency upon pretreatment with the compounds of the invention.

[1] = tested on: BRD pathogens, M. haemolytica and P. multocida; assay: MIC screening panel of BRD pathogens (antibacterial / non-antibacterial); settings: read-out: antibacterial / non-antibacterial (MIC for the BRD pathogens)

Row | Compound | IC50 (IL-6) [µM] | IC50 (TNF-α) [µM] | IL-1β OS of LPS (IL-1β) [µM] | IC50 (IL-6; Bos taurus) [µM] | IC50 (TNF-α; Bos taurus) [µM] | MIC [1] [µg/mL]
1 | 1-((2S,3R,4S,6R)-2-(((2R,3S,4R,5R,8R,10R,11R,12S,13S,14R)-13-(((2R,4R,5S,6S)-5-(ethoxymethyl)-5-hydroxy-4-methoxy-4,6-dimethyltetrahydro-2H-pyran-2-yl)oxy)-2-ethyl-3,4,10-trihydroxy-3,5,8,10,12,14-hexamethyl-15-oxo-1-oxa-6-azacyclopentadecan-11-yl)oxy)-3-hydroxy-6-methyltetrahydro-2H-pyran-4-yl)-1,3-dimethyl-3-phenylurea [Example C-2] | 100 | 200 | 100 | – | – | –
2 | 3-ethyl-1-((2S,3R,4S,6R)-2-(((2R,3S,4R,5R,8R,10R,11R,12S,13S,14R)-2-ethyl-3,4,10-trihydroxy-13-(((2R,4R,5S,6S)-5-hydroxy-4-methoxy-4,6-dimethyl-5-((4-methylpiperazin-1-yl)methyl)tetrahydro-2H-pyran-2-yl)oxy)-3,5,8,10,12,14-hexamethyl-15-oxo-1-oxa-6-azacyclopentadecan-11-yl)oxy)-3-hydroxy-6-methyltetrahydro-2H-pyran-4-yl)-1-methylurea [Example J-9] | > 500 | > 500 | >500 | – | – | –
3 | CCCNC[C@]1(O)[C@H](C)O[C@@H](O[C@H]2[C@H](C)[C@@H](O[C@@H]3O[C@H](C)C[C@H](NCC(C)C)[C@H]3Oc3ccccc3)[C@](C)(O)C[C@@H](C)CN[C@H](C)[C@@H](O)[C@](C)(O)[C@@H](CC)OC(=O)[C@@H]2C)C[C@@]1(C)OC [E-155] | 8 | 8 | 6 | – | – | –
4 | CC[C@H]1OC(=O)[C@H](C)[C@@H](O)[C@H](C)[C@@H](O[C@@H]2O[C@H](C)C[C@H](N(C)C(=O)Nc3ccncc3)[C@H]2O)[C@](C)(O)C[C@@H](C)CN[C@H](C)[C@@H](O)[C@]1(C)O [Example A-5, 1-((2S,3R,4S,6R)-2-(((2R,3S,4R,5R,8R,10R,11R,12S,13S,14R)-2-ethyl-3,4,10,13-tetrahydroxy-3,5,8,10,12,14-hexamethyl-15-oxo-1-oxa-6-azacyclopentadecan-11-yl)oxy)-3-hydroxy-6-methyltetrahydro-2H-pyran-4-yl)-1-methyl-3-(pyridin-4-yl)urea] | – | – | 24 | > 250 | > 250 | –
5 | CC[C@H]1OC(=O)[C@H](C)[C@@H](O)[C@H](C)[C@@H](O[C@@H]2O[C@H](C)C[C@H](N(C)C(=O)Nc3ccccc3OC)[C@H]2O)[C@](C)(O)C[C@@H](C)CN[C@H](C)[C@@H](O)[C@]1(C)O [Example A-8, 1-((2S,3R,4S,6R)-2-(((2R,3S,4R,5R,8R,10R,11R,12S,13S,14R)-2-ethyl-3,4,10,13-tetrahydroxy-3,5,8,10,12,14-hexamethyl-15-oxo-1-oxa-6-azacyclopentadecan-11-yl)oxy)-3-hydroxy-6-methyltetrahydro-2H-pyran-4-yl)-3-(2-methoxyphenyl)-1-methylurea] | – | – | 101 | 16 | > 250 | –
6 | CC[C@H]1OC(=O)[C@H](C)[C@@H](O)[C@H](C)[C@@H](O[C@@H]2O[C@H](C)C[C@H](N(C)C(=O)Nc3ccccc3)[C@H]2O)[C@](C)(O)C[C@@H](C)CN[C@H](C)[C@@H](O)[C@]1(C)O [Example A-13, 1-((2S,3R,4S,6R)-2-(((2R,3S,4R,5R,8R,10R,11R,12S,13S,14R)-2-ethyl-3,4,10,13-tetrahydroxy-3,5,8,10,12,14-hexamethyl-15-oxo-1-oxa-6-azacyclopentadecan-11-yl)oxy)-3-hydroxy-6-methyltetrahydro-2H-pyran-4-yl)-1-methyl-3-phenylurea] | – | – | >500 | > 500 | 200 | –
7 | CC[C@H]1OC(=O)[C@H](C)[C@@H](O[C@H]2C[C@@](C)(OC)[C@@](C)(O)[C@H](C)O2)[C@H](C)[C@@H](O[C@@H]2O[C@H](C)C[C@H](N(C)C(=O)N(C)c3ccccc3)[C@H]2O)[C@](C)(O)C[C@@H](C)CN[C@H](C)[C@@H](O)[C@]1(C)O [Example B-1, 1-((2S,3R,4S,6R)-2-(((2R,3S,4R,5R,8R,10R,11R,12S,13S,14R)-2-ethyl-3,4,10-trihydroxy-13-(((2R,4R,5S,6S)-5-hydroxy-4-methoxy-4,5,6-trimethyltetrahydro-2H-pyran-2-yl)oxy)-3,5,8,10,12,14-hexamethyl-15-oxo-1-oxa-6-azacyclopentadecan-11-yl)oxy)-3-hydroxy-6-methyltetrahydro-2H-pyran-4-yl)-1,3-dimethyl-3-phenylurea] | – | – | 40 | 31 | 25 | –
8 | CC[C@H]1OC(=O)[C@H](C)[C@@H](O[C@H]2C[C@@](C)(OC)[C@H](O)[C@H](C)O2)[C@H](C)[C@@H](O[C@@H]2O[C@H](C)C[C@H](N(C)C(=O)N(C)c3ccc(C(F)(F)F)cc3)[C@H]2O)[C@](C)(O)C[C@@H](C)CN[C@H](C)[C@@H](O)[C@]1(C)O [Example B-2a, 1-((2S,3R,4S,6R)-2-(((2R,3S,4R,5R,8R,10R,11R,12S,13S,14R)-2-ethyl-3,4,10-trihydroxy-13-(((2R,4R,5R,6S)-5-hydroxy-4-methoxy-4,6-dimethyltetrahydro-2H-pyran-2-yl)oxy)-3,5,8,10,12,14-hexamethyl-15-oxo-1-oxa-6-azacyclopentadecan-11-yl)oxy)-3-hydroxy-6-methyltetrahydro-2H-pyran-4-yl)-1,3-dimethyl-3-(4-(trifluoromethyl)phenyl)urea] | – | – | 16 | 23 | 9 | –
9 | CC[C@H]1OC(=O)[C@H](C)[C@@H](O[C@H]2C[C@@](C)(OC)[C@@H](O)[C@H](C)O2)[C@H](C)[C@@H](O[C@@H]2O[C@H](C)C[C@H](N(C)C(=O)N(C)c3ccccc3)[C@H]2O)[C@](C)(O)C[C@@H](C)CN[C@H](C)[C@@H](O)[C@]1(C)O [Example B-3, 1-((2S,3R,4S,6R)-2-(((2R,3S,4R,5R,8R,10R,11R,12S,13S,14R)-2-ethyl-3,4,10-trihydroxy-13-(((2R,4R,5S,6S)-5-hydroxy-4-methoxy-4,6-dimethyltetrahydro-2H-pyran-2-yl)oxy)-3,5,8,10,12,14-hexamethyl-15-oxo-1-oxa-6-azacyclopentadecan-11-yl)oxy)-3-hydroxy-6-methyltetrahydro-2H-pyran-4-yl)-1,3-dimethyl-3-phenylurea] | – | – | 40 | 65 | 37 | –
10 | CCNC[C@]1(O)[C@H](C)O[C@@H](O[C@H]2[C@H](C)[C@@H](O[C@@H]3O[C@H](C)C[C@H](N(C)C(=O)N(C)c4ccccc4)[C@H]3O)[C@](C)(O)C[C@@H](C)CN[C@H](C)[C@@H](O)[C@](C)(O)[C@@H](CC)OC(=O)[C@@H]2C)C[C@@]1(C)OC [Example H-23, 1-((2S,3R,4S,6R)-2-(((2R,3S,4R,5R,8R,10R,11R,12S,13S,14R)-2-ethyl-13-(((2R,4R,5S,6S)-5-((ethylamino)methyl)-5-hydroxy-4-methoxy-4,6-dimethyltetrahydro-2H-pyran-2-yl)oxy)-3,4,10-trihydroxy-3,5,8,10,12,14-hexamethyl-15-oxo-1-oxa-6-azacyclopentadecan-11-yl)oxy)-3-hydroxy-6-methyltetrahydro-2H-pyran-4-yl)-1,3-dimethyl-3-phenylurea] | – | – | 100 | 193 | – | –
11 | CC[C@H]1OC(=O)[C@H](C)[C@@H](O[C@H]2C[C@@](C)(OC)[C@](O)(CNCCN3CCOCC3)[C@H](C)O2)[C@H](C)[C@@H](O[C@@H]2O[C@H](C)C[C@H](N(C)C(=O)N(C)c3ccccc3)[C@H]2O)[C@](C)(O)C[C@@H](C)CN[C@H](C)[C@@H](O)[C@]1(C)O [Example H-42, 1-((2S,3R,4S,6R)-2-(((2R,3S,4R,5R,8R,10R,11R,12S,13S,14R)-2-ethyl-3,4,10-trihydroxy-13-(((2R,4R,5S,6S)-5-hydroxy-4-methoxy-4,6-dimethyl-5-(((2-morpholinoethyl)amino)methyl)tetrahydro-2H-pyran-2-yl)oxy)-3,5,8,10,12,14-hexamethyl-15-oxo-1-oxa-6-azacyclopentadecan-11-yl)oxy)-3-hydroxy-6-methyltetrahydro-2H-pyran-4-yl)-1,3-dimethyl-3-phenylurea] | – | – | 100 | 177 | – | > 64

— patent US12295936B2, “Immunomodulating urea azalides” (Zoetis Services LLC, priority 2020, dated 2025)
